Reference: patent publication EP0104826A2, “Immunomodulator and method of use for immunomodulation” (FUJISAWA PHARMACEUTICAL CO., LTD., priority 1982, dated 1984)

Experiments:
Assay type in all cases: in vivo
[1] = system: antibody forming capacities; test: Antibody forming capacity (PFC-SRBC) in mice immunosuppressed with mitomycin C
Procedure: Female BDF1 (8 weeks in age) mice were injected intraperitoneally with mitomycin C (1 mg/kg) from four days before immuization with 5 x 10^8 SRBC, every day for three days. Samples also were administered to mice intraperitoneally from four days before immunization, every day for five days.
At day 9, mice were sacrificed and the number of direct plaque forming cells per spleen was measured by using Cunningham modification method.

thymus = test: Dexamethasone-induced thymus atrophy in mice; conditions: for Thymus weight: Dexamethasone treatment Yes, n=5
Procedure: Five week-old ddY mice(male) were used. Samples were given subcutaneously twice per day from day 0 to day 2 of the experiment. Five hours after first medication on day 0, mice were supplied with drinking water containing 1 ug/ml of dexamethasone.
At day 2, the weight of thymus of the treated mice was compared with that of the nontreated controls.

[2] = system: Sarcoma-180 (S-180) cells; test: Murine transplantable tumor, total tumor cell packed volume in ascites; conditions: mice
Procedure: Sarcoma-180 (S-180) cells (1 x 10^6 cells) were inoculated to ICR (female, 8 weeks old) mice intraperitoneally and then after, swainsonine was administered intraperitoneally daily for 5 days. The total tumor cell packed volume in ascites was measured 15 days after tumor cell inoculation.

[3] = system: antibody forming capacities; test: Antibody forming capacity (PFC-SRBC) in Sarcoma 180 tumor bearing mice
Procedure: Female ICR(8 weeks in age) mice were intraperitoneally inoculated with 0.2 ml of Sarcoma 180 suspension (5 x 10^6 cells/ml)at day 0. Samples were administered to mice intraperitoneally from 7 days before immunization with 5 x 10^8 SRBC, every day for five days.
The number of direct plaque forming cells per spleen was measured five days after immunization.

[4] = system: antibody forming capacities; test: Antibody forming capacity (PFC-SRBC) in mice immunosuppressed with cyclophosphamide
Procedure: Female BDF1 (8 weeks in age) mice were injected intraperitoneally with cyclophosphamide (22.5 mg/kg) 4 days before immunization with 5 x 10^8 SRBC. Samples were administered to mice i.p. from four days before immunization, every day for five days.
Mouse splenic lymphocytes producing antibody against SRBC were quantitated by using Cunningham modification method described previously.

[5] = system: antibody forming capacities against SRBC; test: Antibody forming capacity (direct plaque-forming cells against SRBC) in mice injected with immunosuppressive factor
Procedure: Splenic lymphocytes producing antibody against sheep blood red cells (SRBC) were quantitated using Cunningham modification (Cunningham, A.J., Nature, 207, 1106-1107, 1965) of the Jerne plaque assay.
[…] Samples were administered to mice intraperitoneally four times before immunization. Mice were sacrificed 4 days after the injection of SRBC, and the number of direct plaque-forming cells per spleen was determined.

[6] = BDF1 mice, Swainsonine 100 mg/kg i.p. alone

In the case of `O[C@H]1[C@H]2[C@H](O)CCCN2C[C@H]1O` [Swainsonine], the “PFC-SRBC/spleen (average number of 5 mice/group)” value (from here on “PFC-SRBC/spleen”) [1, 6] is reported as 21.66 x 10^4 PFC-SRBC/spleen, the “PFC-SRBC/spleen” value ([1]; Mitomycin C (1.0 mg/kg) + Swainsonine 3.7 mg/kg i.p.) is reported as 21.31 x 10^4 PFC-SRBC/spleen and the “PFC-SRBC/spleen” value ([1]; Mitomycin C (1.0 mg/kg) + Swainsonine 11 mg/kg i.p.) is reported as 20.90 x 10^4 PFC-SRBC/spleen. For the same molecule, the “PFC-SRBC/spleen” value ([1]; Mitomycin C (1.0 mg/kg) + Swainsonine 33 mg/kg i.p.) was 20.90 x 10^4 PFC-SRBC/spleen, the “PFC-SRBC/spleen” value ([1]; Mitomycin C (1.0 mg/kg) + Swainsonine 100 mg/kg i.p.) was 21.79 x 10^4 PFC-SRBC/spleen and the “capacities to produce antibody against SRBC” value (“capacities to produce antibody” below) ([1]; mice injected mitomycin C) was “restored the capacities”. The Thymus weight (thymus; sample 5 mg/kg subcutaneously twice per day) was 73.0 mg/mouse, the Thymus weight (thymus; sample 15 mg/kg subcutaneously twice per day) was 78.8 mg/mouse and the Thymus weight (thymus; sample 50 mg/kg subcutaneously twice per day) was 72.4 mg/mouse. The “atrophy of thymus induced by dexamethasone” value (thymus; mice) was “prevents”, the “growth of transplantable tumors” value [2] was “inhibits growth” and the “PFC-SRBC/spleen” value ([3]; ICR mice without tumor, Swainsonine 100 mg/kg i.p.) was 118.7 x 10^4 PFC-SRBC/spleen. For the same molecule, the “PFC-SRBC/spleen” value ([3]; Tumor bearer (Sarcoma 180, ICR mice) + Swainsonine 100 mg/kg i.p., every day for five days) was 126.7 x 10^4 PFC-SRBC/spleen, the “PFC-SRBC/spleen” value ([3]; Tumor bearer + Swainsonine 3.7 mg/kg i.p.) was 61.6 x 10^4 PFC-SRBC/spleen and the “PFC-SRBC/spleen” value ([3]; Tumor bearer + Swainsonine 11 mg/kg i.p.) was 71.6 x 10^4 PFC-SRBC/spleen. For the same molecule, the “PFC-SRBC/spleen” value ([3]; Tumor bearer + Swainsonine 33 mg/kg i.p.) was 123.5 x 10^4 PFC-SRBC/spleen, the “capacities to produce antibody” value ([3]; tumor bearing mice) was “restored the capacities” and the “PFC-SRBC/spleen” value [4, 6] was 16.54 x 10^4 PFC-SRBC/spleen. For the same molecule, the “PFC-SRBC/spleen” value ([4]; Cyclophosphamide (22.5 mg/kg) + Swainsonine 3 mg/kg i.p.) was 21.53 x 10^4 PFC-SRBC/spleen, the “PFC-SRBC/spleen” value ([4]; Cyclophosphamide (22.5 mg/kg) + Swainsonine 11 mg/kg i.p.) was 16.52 x 10^4 PFC-SRBC/spleen and the “PFC-SRBC/spleen” value ([4]; Cyclophosphamide (22.5 mg/kg) + Swainsonine 33 mg/kg i.p.) was 17.19 x 10^4 PFC-SRBC/spleen. For the same molecule, the “PFC-SRBC/spleen” value ([4]; Cyclophosphamide (22.5 mg/kg) + Swainsonine 100 mg/kg i.p.) was 16.48 x 10^4 PFC-SRBC/spleen, the “capacities to produce antibody” value ([4]; mice injected cyclophosphamide) was “restored the capacities” and the “PFC-SRBC/spleen” value ([5]; BDF1 mice, Swainsonine 100 mg/kg/day intraperitoneally, alone (normal mice)) was 16.49 x 10^4 PFC-SRBC/spleen. For the same molecule, the “PFC-SRBC/spleen” value ([5]; Immunosuppressive factor (0.3 ml/mouse/day) + Swainsonine 3.7 mg/kg i.p.) was 20.77 x 10^4 PFC-SRBC/spleen, the “PFC-SRBC/spleen” value ([5]; Immunosuppressive factor (0.3 ml/mouse/day) + Swainsonine 11 mg/kg i.p.) was 20.08 x 10^4 PFC-SRBC/spleen and the “PFC-SRBC/spleen” value ([5]; Immunosuppressive factor (0.3 ml/mouse/day) + Swainsonine 33 mg/kg i.p.) was 20.84 x 10^4 PFC-SRBC/spleen. For the same molecule, the “PFC-SRBC/spleen” value ([5]; Immunosuppressive factor (0.3 ml/mouse/day) + Swainsonine 100 mg/kg i.p.) was 17.39 x 10^4 PFC-SRBC/spleen, the “capacities to produce antibody” value ([5]; mice injected immunosuppressive factor, intraperitoneal administration) was “restored the capacities” and the “capacities to produce antibody” value ([5]; normal mice) was “did not enhance”.
